≈ marks a conversion by molar mass, not a printed value.
Columns and labels:
Nannizzia gypsea = test: Antimicrobial activity against Microsporum gypseum SH-MU-4; format: functional
Staphylococcus aureus = test: Antimicrobial activity against Staphylococcus aureus ATCC 25923; format: functional

MIC (Staphylococcus aureus) [µM]	SMILES	MIC (Nannizzia gypsea) [µM]
–	COc1ccc(C[C@@H]2NC(=O)[C@@]34OC(=O)O/C=C/[C@@](C)(O)C(=O)[C@@H](C)C/C=C/[C@H]3[C@H](O)[C@](C)(O)[C@@H](C)[C@@H]24)cc1 [SCOPARASIN B]	30.3 (≈ 16.5 µg/mL)
87.8 (≈ 32 µg/mL)	C=C[C@]1(C)C=C2C(=O)[C@]3(O)OC[C@@]4(CCCC(C)(C)[C@@]43O)[C@@]2(O)[C@H](O)C1 [DIAPORTHEIN B]	–
